Here are results for 9 compounds from article doi:10.1101/620765v2 (biorxiv, 2019).

The structures appear in SMILES notation. Like-named read-outs stand apart in the source and are kept apart here. Bounds are passed on as bounds.

What is called EC50 is the midpoint of the concentration-response curve. Low readings indicate higher potency in that assay, high ones lower potency in that assay. The IC50 is the concentration at which inhibition is half-maximal.

Assay [1] addresses T1, human αVβ3 expressed in HEK-293 cells (HEK-αVβ3) (Homo sapiens, UniProt P05106+P06756). In words: exposure of mAb AP5. Format: cell-based.
Assay [2] addresses T1, human αVβ3 expressed in HEK-293 cells (HEK-αVβ3). Nature of the assay: inhibition of HEK-αVβ[…] cell adhesion to immobilized fibrinogen. Format: cell-based.
The target is the same in assay [3]. Nature of the assay: inhibition of HEK-αVβ[…] cell adhesion to fibronectin. Format: cell-based.
Assay [4] addresses T2, purified αVβ5 (R&D Systems) (Homo sapiens, UniProt P06756+P18084). In words: inhibition of binding of purified αVβ[…] to immobilized vitronectin, plate assay.
Assay [5] has as its target T1, human αVβ3 expressed in HEK-293 cells (HEK-αVβ3). In words: cell-based. Also on record: species or system HEK-293 expressing human αVβ3.
Assay [6] has as its target purified human αVβ3 (R&D Systems) (Homo sapiens, UniProt P05106+P06756). Nature of the assay: biochemical.
Assay [7] deals with T2, purified αVβ5 (R&D Systems). Conditions: read-out: IC50 (μM) purified αVβ5 binding to vitronectin; antagonist.

With `O=C(CCCCc1ccc2c(n1)NCCC2)NCC[C@@H](Nc1nc2ccccc2o1)C(=O)O` [TDI-4158], in assay [1], the EC50 was more than 10000 nM. The IC50 in assay [2] is 123 ± 55 nM.

Consider `O=C(O)CCNC(=O)CCCCc1ccc2c(n1)NCCC2` [C, TDI-1367], for which the EC50 in assay [1] is more than 10000 nM. The same compound gave an IC50 in assay [2] of 756 ± 607 nM.

Regarding `O=C(CCCCc1ccc2c(n1)NCCC2)NCCC(Nc1nc2ccccc2o1)C(=O)O` (racemic) [E, TDI-3761], the IC50 was determined as 79 ± 10 nM in assay [3], 875 ± 348 nM in assay [4], 172 ± 66 nM in assay [5] and 0.049 ± 0.05 µM in assay [6].

For `COc1ccc(C(CC(=O)O)N2CCN(CCCc3ccc4c(n3)NCCC4)C2=O)cn1` (racemic) [A, TDI-806], it took 12 nM to reach a half-maximal effect in assay [1] (EC50). In assay [2], the IC50 came out at 3 nM.

Consider `O=C(O)CCCNC(=O)CCCCc1ccc2c(n1)NCCC2` [D, TDI-2668], for which the EC50 in assay [1] was more than 10000 nM. This compound had a 50% inhibitory concentration (IC50) in assay [2] of 1020 nM.

In turn, `O=C(CCCCc1ccc2c(n1)NCCC2)NCC[C@H](Nc1nc2ccccc2o1)C(=O)O` [TDI-4160] came in with an EC50 in assay [1] of more than 10000 nM. The compound further displayed an IC50 in assay [2] (1 mM Mg2+, 2 mM Ca2+, pH 7.4, room temperature) of 185 ± 42 nM.

Regarding `O=C(CCCCc1ccc2c(n1)NCCC2)NCCC(NC(=O)c1nc2ccccc2s1)C(=O)O` (racemic) [F, TDI-3909], inhibition in assay [2] was half-maximal at 49 ± 16 nM (IC50).

As for `O=C(CCCCc1ccc2c(n1)NCCC2)NCC[C@H](NC(=O)c1nc2ccccc2s1)C(=O)O` [G, TDI-4161], the IC50 stood at 42 ± 21 nM in assay [3], 689 ± 374 nM in assay [4] and 0.012 ± 0.005 µM in assay [6].

As for `COc1ccc(C(CC(=O)O)N2CCN(CCCc3ccc4c(n3)NCCC4)C2=O)cn1` (racemic) [MK-429 racemate], the IC50 was found to be 0.011 ± 0.005 µM in assay [6] (read-out: IC50 (μM) purified αVβ3 binding to penton base, antagonist) and 0.035 ± 0.019 µM in assay [7].
